# Source: ChEMBL document CHEMBL3616476, “Expanding the structural diversity of Bcr-Abl inhibitors: Hybrid molecules based on GNF-2 and Imatinib” (Bioorg Med Chem Lett, 2015)
# pIC50: −log10 of the molar value.
# Key:
# Bcr/Abl fusion protein = Bcr/Abl fusion protein (Homo sapiens, UniProt P00519); assay: Inhibition of Bcr-Abl (unknown origin) after 1 hr by luminescence assay; format: protein assay
# K562 = assay: cells; details: Homo sapiens, K562, 48 h
# K562 (Homo sapiens) = assay: Antiproliferative activity against human K562 cells by MTT assay
# Sequence of Bcr/Abl fusion protein (P00519 whole entry, the tested form may be a part): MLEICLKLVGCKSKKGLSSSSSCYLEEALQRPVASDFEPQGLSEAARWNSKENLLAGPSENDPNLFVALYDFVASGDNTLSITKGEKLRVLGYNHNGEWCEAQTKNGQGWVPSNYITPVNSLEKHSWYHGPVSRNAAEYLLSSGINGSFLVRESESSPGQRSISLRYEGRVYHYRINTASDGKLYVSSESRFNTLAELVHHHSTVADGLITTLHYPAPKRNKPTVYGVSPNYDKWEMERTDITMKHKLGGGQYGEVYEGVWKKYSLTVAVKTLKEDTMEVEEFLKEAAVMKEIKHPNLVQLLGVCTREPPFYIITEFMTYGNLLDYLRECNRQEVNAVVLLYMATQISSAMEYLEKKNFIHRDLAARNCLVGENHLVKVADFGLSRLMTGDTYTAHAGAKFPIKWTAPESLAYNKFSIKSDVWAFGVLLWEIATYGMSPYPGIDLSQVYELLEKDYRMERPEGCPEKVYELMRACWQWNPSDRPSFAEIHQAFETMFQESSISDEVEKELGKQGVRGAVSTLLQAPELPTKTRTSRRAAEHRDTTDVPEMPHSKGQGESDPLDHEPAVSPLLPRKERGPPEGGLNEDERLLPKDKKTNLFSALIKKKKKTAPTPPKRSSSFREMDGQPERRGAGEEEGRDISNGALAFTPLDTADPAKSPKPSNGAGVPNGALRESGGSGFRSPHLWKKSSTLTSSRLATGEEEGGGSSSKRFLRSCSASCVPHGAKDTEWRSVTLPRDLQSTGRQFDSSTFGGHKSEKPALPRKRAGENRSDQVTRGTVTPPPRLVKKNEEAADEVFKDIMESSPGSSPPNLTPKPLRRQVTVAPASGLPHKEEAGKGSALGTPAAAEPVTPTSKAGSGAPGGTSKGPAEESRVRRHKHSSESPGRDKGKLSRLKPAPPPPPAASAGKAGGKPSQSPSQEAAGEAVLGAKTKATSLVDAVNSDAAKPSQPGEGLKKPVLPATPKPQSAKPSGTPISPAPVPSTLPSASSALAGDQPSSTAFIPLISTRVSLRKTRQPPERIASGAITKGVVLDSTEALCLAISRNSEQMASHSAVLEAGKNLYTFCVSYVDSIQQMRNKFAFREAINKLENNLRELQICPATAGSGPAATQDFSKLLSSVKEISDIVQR
# Sequence of Bcr/Abl fusion protein (P11274 whole entry, further chain, the tested form may be a part): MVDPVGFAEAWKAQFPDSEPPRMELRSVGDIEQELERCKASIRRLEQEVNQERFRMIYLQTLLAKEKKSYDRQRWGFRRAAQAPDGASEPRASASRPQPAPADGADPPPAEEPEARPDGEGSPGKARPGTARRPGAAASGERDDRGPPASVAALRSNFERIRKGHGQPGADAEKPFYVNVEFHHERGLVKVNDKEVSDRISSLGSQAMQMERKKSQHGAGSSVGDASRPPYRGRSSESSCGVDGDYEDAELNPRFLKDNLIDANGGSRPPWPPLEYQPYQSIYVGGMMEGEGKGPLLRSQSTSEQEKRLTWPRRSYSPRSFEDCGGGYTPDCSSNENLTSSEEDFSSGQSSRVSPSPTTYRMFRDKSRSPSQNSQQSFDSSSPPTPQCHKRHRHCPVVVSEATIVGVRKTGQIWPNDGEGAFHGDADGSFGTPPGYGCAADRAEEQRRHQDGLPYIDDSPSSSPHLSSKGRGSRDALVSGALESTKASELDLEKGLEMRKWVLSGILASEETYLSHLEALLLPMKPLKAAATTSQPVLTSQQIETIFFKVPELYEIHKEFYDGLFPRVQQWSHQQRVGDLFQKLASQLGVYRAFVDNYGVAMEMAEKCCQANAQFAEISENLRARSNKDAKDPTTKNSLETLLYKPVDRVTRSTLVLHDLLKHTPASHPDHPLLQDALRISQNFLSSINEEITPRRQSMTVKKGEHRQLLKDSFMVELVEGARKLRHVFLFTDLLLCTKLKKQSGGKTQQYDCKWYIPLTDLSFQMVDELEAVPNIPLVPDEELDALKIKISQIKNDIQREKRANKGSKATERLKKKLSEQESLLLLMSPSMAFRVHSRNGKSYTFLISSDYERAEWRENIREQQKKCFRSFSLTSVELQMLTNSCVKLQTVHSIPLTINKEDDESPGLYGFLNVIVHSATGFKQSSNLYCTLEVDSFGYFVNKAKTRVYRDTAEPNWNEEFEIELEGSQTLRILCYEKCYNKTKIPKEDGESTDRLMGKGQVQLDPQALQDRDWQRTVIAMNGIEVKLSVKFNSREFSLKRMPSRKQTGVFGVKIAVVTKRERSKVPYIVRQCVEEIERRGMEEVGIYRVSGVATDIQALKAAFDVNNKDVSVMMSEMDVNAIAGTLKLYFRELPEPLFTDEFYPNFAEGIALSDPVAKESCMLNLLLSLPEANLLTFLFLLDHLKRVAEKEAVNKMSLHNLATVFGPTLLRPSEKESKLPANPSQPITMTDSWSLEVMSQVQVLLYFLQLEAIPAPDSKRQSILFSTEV
Compound,pIC50 (Bcr/Abl fusion protein),pIC50 (K562),pIC50 (K562 (Homo sapiens))
COc1ccc(Nc2cc(-c3ccc(C(=O)NCCNC(=O)c4cccc(OC)c4)cc3)ncn2)cc1,5.07,4.95,–
COc1ccc(Nc2cc(-c3ccc(C(=O)N4CCN(C(=O)c5ccc(Cl)cc5Cl)CC4)cc3)ncn2)cc1,–,4.46,4.46
COc1ccc(Nc2cc(-c3ccc(C(=O)NCCNC(=O)c4c(F)cccc4Cl)cc3)ncn2)cc1,5.21,5.07,–
COc1ccc(Nc2cc(-c3ccc(C(=O)NCCNC(=O)c4ccc(F)c(F)c4)cc3)ncn2)cc1,5.36,5.21,–
COc1ccc(Nc2cc(-c3ccc(C(=O)NCCNC(=O)c4cccc(C(F)(F)F)c4)cc3)ncn2)cc1,5.59,4.18,–
COc1ccc(Nc2cc(-c3ccc(C(=O)NCCNC(=O)c4cccc(N(C)C)c4)cc3)ncn2)cc1,5.03,6.07,–
COc1ccc(Nc2cc(-c3ccc(C(=O)NCCNC(=O)c4ccc(C(C)(C)C)cc4)cc3)ncn2)cc1,< 4.00,6.08,–
COc1ccc(Nc2cc(-c3ccc(C(=O)NCCNC(=O)c4ccccc4Cl)cc3)ncn2)cc1,5.03,6.19,–
COc1ccc(Nc2cc(-c3ccc(C(=O)NCCNC(=O)c4ccccc4C)cc3)ncn2)cc1,4.84,4.41,–
COc1ccc(Nc2cc(-c3ccc(C(=O)NCCNC(=O)c4cccc(F)c4)cc3)ncn2)cc1,4.95,4.47,–
COc1ccc(Nc2cc(-c3ccc(C(=O)NCCNC(=O)c4ccc(F)cc4)cc3)ncn2)cc1,–,4.96,–

# More lines, now with the values ahead:
pIC50 (Bcr/Abl fusion protein),pIC50 (K562),pIC50 (K562 (Homo sapiens)),Compound
–,4.37,–,COc1ccc(Nc2cc(-c3ccc(C(=O)N4CCN(C(=O)c5cccc(F)c5)CC4)cc3)ncn2)cc1
–,4.13,–,COc1ccc(Nc2cc(-c3ccc(C(=O)N4CCN(C(=O)c5ccccc5Cl)CC4)cc3)ncn2)cc1
–,4.28,4.28,COc1ccc(Nc2cc(-c3ccc(C(=O)N4CCN(C(=O)c5cccc(C(F)(F)F)c5)CC4)cc3)ncn2)cc1
–,< 4.00,< 4.00,COc1ccc(Nc2cc(-c3ccc(C(=O)N4CCN(C(=O)c5cccc(N(C)C)c5)CC4)cc3)ncn2)cc1
7.77,4.45,–,COc1ccc(Nc2cc(-c3ccc(C(=O)N4CCN(C(=O)c5ccc(F)cc5)CC4)cc3)ncn2)cc1
–,4.81,4.81,COc1ccc(Nc2cc(-c3ccc(C(=O)N4CCN(C(=O)c5ccc(F)c(F)c5)CC4)cc3)ncn2)cc1
5.05,5.05,–,COc1ccc(Nc2cc(-c3ccc(C(=O)N4CCN(C(=O)c5ccccc5F)CC4)cc3)ncn2)cc1
< 4.00,< 4.00,–,COc1ccc(Nc2cc(-c3ccc(C(=O)N4CCN(C(=O)c5ccc(OC)cc5)CC4)cc3)ncn2)cc1
< 4.00,< 4.00,–,COc1ccc(Nc2cc(-c3ccc(C(=O)N4CCN(C(=O)c5cccc(C)c5)CC4)cc3)ncn2)cc1
